Results taken from patent US11780814B2, “Small molecules for treating cancer, inhibiting chemokine activity and/or inducing cell death” (AlonBio Ltd., priority 2019, dated 2023).
Each block holds one molecule with its values, some of them ahead of it.

Legend:
HEY-T30 cells = assay: Cell cycle analysis by 7-AAD, Taxol-resistant ovarian cancer cells; type: cell-based; conditions: 24 hours
Protocol: Cells (1×10^6 cells/ml) were cultured in 12-well plates in 10% FCS. After 24 hours the medium was replaced by 1% FCS and BKT300-N1 or Taxol (250-3.75 nM) were added.
24 hours incubation, cells were harvested and washed with PBS. The pellet was fixed by adding 200 μl Fix/Perm buffer and vortexed. The fixed cells were incubated for 20 minutes at 4° C. and then 1 ml of Perm/Wash buffer was added. Following centrifugation, supernatant was removed and cells were resuspended in 100 μl Perm/Wash plus 4 μl of 7-AAD and vortexed. The cells were then incubated in the dark for 20 minutes at 4° C. and thereafter 300 μl of PBS was added. Flow cytometry analysis was performed by collecting 20,000 events per sample. Analysis was done according to the distribution of cells in three major phases of the cycle: G0/G1 (blue), S (purple), G2/M (green), and apoptotic cells (red), as shown in FIGS. 15-18C.
All results are expressed as average ±SD. Statistical differences were determined by an analysis of two-tailed Student's t test. Values of p<0.05 were considered to be statistically significant.
Cells were incubated in different doses of Taxol (30, 15, 7.5, 3.75 nM) for 24 hours and were thereafter analyzed as described hereinabove.
Next, the effect of BKT300-N1 on the taxol resistance cells was tested. Both ovarian cancer cell lines were incubated with BKT300-N1 (250, 125, 62.5, 31.25, 15.6 nM). For comparison, the effect of the same amounts of Taxol was also tested.

OVCAR8 cells = assay: Cell cycle analysis by 7-AAD, Taxol-sensitive ovarian cancer cells; type: cell-based; conditions: lowest taxol concentration of 3.75 nM; 24 hours; FIG. 16
Protocol: Cells (1×10^6 cells/ml) were cultured in 12-well plates in 10% FCS. […] 24 hours incubation, cells were harvested and washed with PBS. The pellet was fixed by adding 200 μl Fix/Perm buffer and vortexed. The fixed cells were incubated for 20 minutes at 4° C. and then 1 ml of Perm/Wash buffer was added. Following centrifugation, supernatant was removed and cells were resuspended in 100 μl Perm/Wash plus 4 μl of 7-AAD and vortexed. The cells were then incubated in the dark for 20 minutes at 4° C. and thereafter 300 μl of PBS was added. Flow cytometry analysis was performed by collecting 20,000 events per sample. […] All results are expressed as average ±SD. Statistical differences were determined by an analysis of two-tailed Student's t test. Values of p<0.05 were considered to be statistically significant. Cells were incubated in different doses of Taxol (30, 15, 7.5, 3.75 nM) for 24 hours and were thereafter analyzed as described hereinabove.

SDF-1 = SDF-1 (Homo sapiens, UniProt P48061); assay: Transwell migration assay of Jurkat cells towards SDF-1; type: cell-based; conditions: 0.5 μM, 1 μM, or 5 μM; 100 ng/ml SDF-1; 3 hours; FIG. 2
Chain of SDF-1 (P48061 22-93, species assumed): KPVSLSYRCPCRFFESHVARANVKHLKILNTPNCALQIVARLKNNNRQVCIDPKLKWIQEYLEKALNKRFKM
Protocol: 600 μl of RPMI medium containing 1% fetal calf serum (FCS) was added to the lower chambers of Transwell® transmigration plates, supplemented with 100 ng/ml of SDF-1. BKT300-N1 was added to the lower chambers at the indicated concentration, except in control samples. The SDF-1 was incubated with BKT300-N1 for 30 minutes at room temperature before the initiation of the migration assay. Following 30 minutes of incubation 2×10^5 Jurkat cells were added to the upper chambers of the transmigration plates in a total volume of 100 μl. Cells which migrated within 3 hours to the bottom chamber of the Transwell® plates were counted using a FACScalibur™ flow cytometer.

HCC SNU449 cells = assay: Scratch assay (IncuCyte), cell invasion and migration; type: cell-based, human
Protocol: Scratch assay was performed to assess the effects of BKT300-N1 compared to that of BKT300-3-C5 on cell invasion and migration. This system measures scratch closure in real time and automatically calculates the relative wound density and wound width within the initially-vacant area at each time point. The relative wound density is the ratio of the occupied area to the total area of the initial scratched region.
Cells were plated on 96-well Image-lock plates (Essen Bioscience) and grown overnight to form a spatially uniform monolayer.
Scratches were made by using a 96-pin tool WoundMaker™ (Essen BioScience) to create uniform, reproducible scratches in all the wells of a 96-well plate. After creating the scratch, the medium was aspirated and the wells are washed twice with fresh medium to remove any cells from the scratched area. Following the washes, fresh medium containing different concentrations of the tested compound was added to the wells. Once the fresh medium is added, the plate was placed into the IncuCyte ZOOM™ apparatus and images of the collective cell spreading are recorded every 4 hours for a total duration of 60 hours.
Data processing and analysis were done using the IncuCyte S3 Live-cells Analysis System.
The scratch assay was performed using HCC SNU449 cells. The cells were scratched and incubated with 0.05, 0.1, 0.5, 1 and 10 μM of BKT300-N1 or BKT300-3-C5.

U937 cells [1] = assay: Annexin-V/PI apoptosis assay by flow cytometry; type: cell-based, human; conditions: 25-1000 nM, 24 hours, compared to BKT300-3-C5
Protocol: Apoptosis was determined by flow cytometry analysis using Annexin-V kit. U937 cancer cells were incubated in RPMI cell medium with 1% fetal calf serum (FCS) at a concentration of 1×10^6 cells/well at a final volume of 1 ml in 24-well plate. The tested compound (BKT300-N1 or BKT300-3-C5) was added to the cells at the indicated concentrations. After 24 hours incubation, medium and cells were collected and centrifuged, then stained with Annexin-V and propidium iodide (PI) kit according to manufacturer's instructions. The numbers of viable cells (Annexin-V negative/PI negative); early apoptotic cells (Annexin-V positive/PI negative); late apoptosis cells (Annexin-V positive/PI positive) and necrotic cells (Annexin-V negative/PI positive) were then evaluated by flow cytometry (FACS).

[2] = tested on: cleaved caspase-3 in U937 cells; assay: Western blot for cleaved caspase-3; type: cell-based, human; conditions: 0.1, 0.5 and 1 μM; 24 hours; FIGS. 7A-7B
Protocol: The role of caspase-3 (CASP3) in the BKT300-N1-induced apoptosis of AML cell lines U937 was tested. Cells were incubated with BKT300-N1 (0.1, 0.5 and 1 μM) for 24 hours, and were then tested for the presence of cleaved caspase 3 using mAb against human cleaved caspase 3 by Western blot assay.

U937 cells [3] = assay: Cell cycle analysis by 7-AAD staining; type: cell-based, human; conditions: 24 hours
Protocol: (§1) To evaluate the effects of BKT300-N1 on cell cycle distribution 7-Aminoactinomycin D (7-AAD) protocol was used. Cells were seeded in 24 wells of microplates at a density of 1×10^6 Cells/well and exposed to different concentrations of the tested compound, BKT300-N1 or BKT300-3-C5, for 24 or 48 hours at 37° C. in a CO2 incubator. After incubation time, cells were collected and washed with cold PBS. Cells were fixed for 20 minutes at 4° C. and processed according to the 7-AAD labeling protocol. The intensity of dye in staining cells was measured by flow cytometry. Cell cycle analysis calculated G0/G1, G2/M and sub-G0 phases from a 7-AAD area histogram.
Using the above protocol, U937 cells were treated with different concentrations of BKT300-N1 or BKT300-3-C5 (0.05, 0.1, 0.5 and 1 μM) for 24 hours and then cell cycle phases were analyzed by flow cytometry using 7-AAD.

H69 cells = assay: Cell cycle analysis by 7-AAD staining; type: cell-based; conditions: different concentrations; 48 hours; FIG. 9
Protocol: as §1
Using the above protocol, H69 cells were treated with different concentrations of BKT300-N1 for 48 hours and then cell cycle phases were analyzed by flow cytometry using 7-AAD. Cells were gated according to the cells cycle phase: P1 for G0/G1 phase; P2-apoptotic cells in subG0 phase; and P3 for G2/M phase.

[4] = tested on: human ovarian (CTG-1086) cancer; assay: Patient derived xenograft (PDX) tumor growth, ovarian; type: in vivo, mice; conditions: SC every 12 hours, 5 mg or 10 mg daily dose; compared to vehicle control; FIG. 13A
Protocol: (§2) In additional experiments, the in vivo efficacy of BKT300-N1, on the growth of subcutaneous, low passage Champions' TumourGraft® patient derived xenograft (PDX) models of human non-small-cell lung (CTG-0198), colorectal (CTG-0923) and ovarian (CTG-1086) cancer in female immunocompromised mice was tested.
(§3) Athymic Nude-Foxn1nu (Immunocompromised) female mice aged 6-8 weeks were implanted with 1-1.5 cm^3 harvested tumors unilaterally on the left flank. When the tumors reached an average volume of 200 cubic millimeters, control group was treated daily with a vehicle and treatment group was treated with either 2.5 mg per mice per injection (low dose) or 5 mg per mice per injection (hight dose) of BKT300-N1. The control group was subcutaneously (SC) injected with the vehicle (Cremophore EL and Ethanol 50%/50% volume/volume) diluted 1:6 with 0.9% Sodium Chloride.
(§4) For the low dose treatment group, a stock solution of 30 mg/mL BKN300-N1 was preapared in the vehicle and further diluted 1:6 with 0.9% Sodium Chloride, to a final concentration of 5 mg/mL. Animals received a 0.5 mL subcutaneously (SC) injection every 12 hours (for a 2.5 mg/injection=5 mg daily dose).
(§5) For the high dose treatment group, a stock solution of 30 mg/mL BKN300-N1 was preapared in the vehicle and further diluted 1:3 with 0.9% Sodium Chloride, to a final concentration of 10 mg/mL. […]

[5] = tested on: human non-small-cell lung (CTG-0198) cancer; assay: Patient derived xenograft (PDX) tumor growth, lung; type: in vivo, mice; conditions: SC every 12 hours, 5 mg or 10 mg daily dose; compared to vehicle control; FIG. 13B
Protocol: as §2, §3, §4, §5

[6] = tested on: human colorectal (CTG-0923) cancer; assay: Patient derived xenograft (PDX) tumor growth, colorectal; type: in vivo, mice; conditions: SC every 12 hours, 5 mg or 10 mg daily dose; compared to vehicle control; FIG. 13C
Protocol: as §2, §3, §4, §5

cancer cells = conditions: described in WO 2017/103931; cited from earlier work
CXCR4 = conditions: animal studies, cited from earlier work
[7] = all tested concentrations (0.05, 0.1, 0.5 and 1 μM), FIG. 8A

Structure (SMILES): CC(=O)O[C@H]1C(=O)[C@@]2(C)[C@H]([C@H](OC(=O)c3ccccc3)[C@]3(O)C[C@H](OC(=O)[C@H](O)[C@@H](NC(=O)c4ccccc4)c4ccccc4)C(C)=C1C3(C)C)[C@]1(OC(C)=O)CO[C@@H]1C[C@@H]2O [Taxol, reference compound]
effect on cell cycle (HEY-T30 cells; Taxol 30, 15, 7.5, 3.75 nM, FIG. 15): no effect on cell cycle
effects on dead cells, G0/G1 phase and G2/M phase (HEY-T30 cells; any of the tested concentrations (250, 125, 62.5, 31.25, 15.6 nM), FIGS. 18A-18C): no significant effects
effect on cell cycle (OVCAR8 cells): effect on cell cycle was already evident

migration of lymphocytic Jurkat cells towards SDF-1 (SDF-1): significantly inhibited
Structure (SMILES): CCCCCc1c(O)c2cc(OC)cc(Oc3ccc(O)cc3OC)c2[nH]c1=O [BKT300-N1, 4-hydroxy-8-(4-hydroxy-2-methoxyphenoxy)-6-methoxy-3-pentylquinolin-2(1H)-one]
wound width values (HCC SNU449 cells; 0.05, 0.1, 0.5, 1 and 10 μM, over BKT300-3-C5, particularly at the lower concentrations, FIGS. 4A-4E): improved effect
relative wound area (HCC SNU449 cells; at 24 hours, already at 0.1 μM, compared to BKT300-3-C5, FIG. 3): improved effect
viability of U937 cells as the number of Annexin-V−/PI− viable cells (U937 cells [1]; all tested concentrations, FIG. 6A): improved effect
reduction in the percentage of viable cells via apoptosis (U937 cells [1]; FIGS. 6A-6B): substantially higher effect
presence of cleaved caspase-3 (mechanism of induced apoptosis) [2]: via caspase-3 activation
cell cycle arrest (U937 cells [3]; [7]): resulted in cell cycle arrest
cells death (U937 cells [3]; [7]): induced cells death
apoptotic cell death (H69 cells): induce apoptotic cell death
cell cycle growth arrest (H69 cells): arrest the growth at the G2M phase
tumor growth [4]: substantial reduction and even arrest in tumor growth
tumor growth [5]: substantial reduction and even arrest in tumor growth
tumor growth [6]: substantial reduction and even arrest in tumor growth
level of dead cells (HEY-T30 cells; significant at a concentration of 62.5 nM, FIG. 18A): increasing the level of dead cells
percentage of cells at G0/G1 phase (HEY-T30 cells; significant at concentration of 125 nM, FIG. 18B): reducing the percentage of cells at G0/G1 phase
level of cells in G2/M phase (HEY-T30 cells; significant at concentration of 125 nM, FIG. 18C): increasing the level of cells in G2/M phase

Structure (SMILES): CCCCCc1cc2cc(O)cc(Oc3c(O)cc(O)cc3CCCCC)c2c(=O)o1 [BKT300]
cancer cell death (cancer cells): inducing cancer cell death
cancer cell migration (cancer cells): inhibiting cancer cell migration

Structure (SMILES): c1cc(CN2CCCNCCNCCCNCC2)ccc1CN1CCCNCCNCCCNCC1 [plerixafor]
recurrence of glioblastoma associated with vasculogenesis (CXCR4; Kioi et al. 2010): reduce recurrence of glioblastoma
metastasis (CXCR4; Smith et al. 2004): reduce metastasis
opioid-induced hyperalgesia (CXCR4; Wilson et al. 2011): counteract opioid-induced hyperalgesia

Structure (SMILES): CCCCCC1C(=O)Nc2c(Oc3ccc(OC)cc3OC)cc(OC)cc2C1=O (stereo not shown) [BKT300-3-C5, reference compound]
cells death (U937 cells [3]; concentration lower than 0.5 μM, FIG. 8B): did not induce cells death
